Experimental data: publication PMC10874388, “Cyclic peptides discriminate BCL-2 and its clinical mutants from BCL-XL by engaging a single-residue discrepancy” (Nature Communications, 2024)
“And” between values parts separate entries of the source, which are not always exact repeats. Equal values may be shown once.

System: A549 cells (control)
Experiment: Cell viability assay (CellTiter-Glo), normal A549 (control)
Type: cell-based
Details: for luminescence reading, everage: mean of 6 wells
Description: The cell lines Jurkat (TIB-152), El4 (TIB-39), Daudi (ccl-213), RS4:11 (crl-1873), A549 (ccl-185), HepG2 (hb-8065) and PANC-1 (crl-1469) were purchased from ATCC (American Type Culture Collection), and MGC-803 (C6582) was purchased from Beyotime (https://www.beyotime.com/product/C6582.htm). […] Daudi and RS4:11 cells were cultured in RPMI-1640 medium (HyClone, SH30809.01) and 10% FBS (Gibco, 10099-141), whereas HepG2, MGC-803 and PANC-1 cells were cultured in MDEM (HyClone, SH30243.01). Cells were maintained at 37 °C under a humidified, 5% (v/v) CO2-containing atmosphere.
Cell viability was measured using CellTiter-Glo® 2.0 Reagent (Promega, G9242). […] After different inhibitors were added into serum-free medium and cultured for 4 h (RS4:11 for 6 h), FBS were supplemented to 10% and then incubated totally for 24 h or 48 h. Finally, the IC50 values were calculated based on measurements using a microplate reader (Thermo, Varioskan LUX). Statistical analysis was performed using software GraphPad Prism 7.0.

[1] = control A549, ABT-199 0.390625 uM
[2] = control A549, ABT-199 0.78125 uM
[3] = control A549, ABT-199 1.5625 uM

`CC1(C)CCC(CN2CCN(c3ccc(C(=O)NS(=O)(=O)c4ccc(NCC5CCOCC5)c([N+](=O)[O-])c4)c(Oc4cnc5[nH]ccc5c4)c3)CC2)=C(c2ccc(Cl)cc2)C1` [venetoclax] was tested, and the inhibition rate (A549, ABT199 5 uM, fraction, replicates) was 0.5341 and 0.5546 and 0.5723 and 0.5614 and 0.5684 and 0.5859, the raw viability reading (A549, ABT199 5 uM, replicates) was 226900 and 232700 and 229000 and 219700 and 247200 and 236300 and the “average (raw viability reading)” value (A549, ABT199 10 uM) was 181100. For the same compound, the inhibition rate (A549, ABT199 10 uM, fraction, replicates) was 0.6325 and 0.6605 and 0.666 and 0.6628 and 0.6649 and 0.6653, the raw viability reading (A549, ABT199 10 uM, replicates) was 177200 and 178900 and 177800 and 177600 and 195000 and 180100 and the “average (raw viability reading)” value (A549, ABT199 20 uM) was 174683. For the same compound, the inhibition rate (A549, ABT199 20 uM, fraction, replicates) was 0.6679 and 0.6686 and 0.6762 and 0.6713 and 0.6664 and 0.6741, the raw viability reading (A549, ABT199 20 uM, replicates) was 171800 and 174400 and 177000 and 172900 and 176200 and 175800 and the inhibition at 0.390625 µM (Homo sapiens, A549, control A549, ABT-199 0.390625 uM, replicate wells, read-out: inhibition rate) was 26%. It also gave an inhibition at 0.78125 µM (Homo sapiens, A549, control A549, ABT-199 0.78125 uM, replicate wells, read-out: inhibition rate) of 33%, an inhibition at 1.5625 µM (Homo sapiens, A549, control A549, ABT-199 1.5625 uM, replicate wells, read-out: inhibition rate) of 61% and an inhibition at 3.125 µM (Homo sapiens, A549, control A549, ABT-199 3.125 uM, replicate wells, read-out: inhibition rate) of 75%. For the same compound, the inhibition at 6.25 µM (Homo sapiens, A549, control A549, ABT-199 6.25 uM, replicate wells, read-out: inhibition rate) was 76%, the inhibition at 12.5 µM (Homo sapiens, A549, control A549, ABT-199 12.5 uM, replicate wells, read-out: inhibition rate) was 81% and the inhibition at 25 µM (Homo sapiens, A549, control A549, ABT-199 25 uM, replicate wells, read-out: inhibition rate) was 87%. It also gave an inhibition at 50 µM (Homo sapiens, A549, control A549, ABT-199 50 uM, replicate wells, read-out: inhibition rate) of 93%, an inhibition at 100 µM (Homo sapiens, A549, control A549, ABT-199 100 uM, replicate wells, read-out: inhibition rate) of 98% and an inhibition at 200 µM (Homo sapiens, A549, control A549, ABT-199 200 uM, replicate wells, read-out: inhibition rate) of 99%. For the same compound, the IC50 (Homo sapiens, A549, 48 h, CellTiter-Glo, n = 6, read-out: IC50 A549 control (original cells)) was 1100 ± 200 nM, the “luminescence reading (raw, replicate wells)” value [1] was 589100 and 474500 and 578500 and 498700 and 513300 and 511200 and the “luminescence reading, everage” value [1] was 527550. For the same compound, the inhibition rate (control A549, ABT-199 0.390625 uM, replicate wells) was 40% and 27% and 37% and 35% and 36%, the “luminescence reading (raw, replicate wells)” value [2] was 528700 and 466700 and 517300 and 470700 and 495500 and 475500 and the “luminescence reading, everage” value [2] was 492400. For the same compound, the inhibition rate (control A549, ABT-199 0.78125 uM, replicate wells) was 41% and 35% and 38% and 40%, the “luminescence reading (raw, replicate wells)” value [3] was 312000 and 314300 and 298800 and 314500 and 309000 and 290800 and the “luminescence reading, everage” value [3] was 306567. The inhibition rate (control A549, ABT-199 1.5625 uM, replicate wells) was 60% and 62% and 63%, the “luminescence reading (raw, replicate wells)” value (control A549, ABT-199 3.125 uM) was 198800 and 204700 and 191700 and 191900 and 189900 and 188800 and the “luminescence reading, everage” value (control A549, ABT-199 3.125 uM) was 194300. The inhibition rate (control A549, ABT-199 3.125 uM, replicate wells) was 74%, the “luminescence reading (raw, replicate wells)” value (control A549, ABT-199 6.25 uM) was 186800 and 193000 and 186700 and 177700 and 179700 and 186500 and the “luminescence reading, everage” value (control A549, ABT-199 6.25 uM) was 185067. The inhibition rate (control A549, ABT-199 6.25 uM, replicate wells) was 78% and 77%, the “luminescence reading (raw, replicate wells)” value (control A549, ABT-199 12.5 uM) was 154400 and 153500 and 158000 and 148200 and 149400 and 149600 and the “luminescence reading, everage” value (control A549, ABT-199 12.5 uM) was 152183. For the same compound, the inhibition rate (control A549, ABT-199 12.5 uM, replicate wells) was 80%, the “luminescence reading (raw, replicate wells)” value (control A549, ABT-199 25 uM) was 102900 and 103500 and 106000 and 102100 and 105400 and 102800 and the “luminescence reading, everage” value (control A549, ABT-199 25 uM) was 103783. For the same compound, the “luminescence reading (raw, replicate wells)” value (control A549, ABT-199 50 uM) was 55930 and 54730 and 51960 and 49990 and 56070 and 56150 and the “luminescence reading, everage” value (control A549, ABT-199 50 uM) was 54138.
